Laboratory results reported in patent US9273095B2, “Antibiotic peptide and preparation method therefor and application therefor” (priority 2011, dated 2016).
Converted amounts (≈) assume the structure as drawn.

Tests used:
Type in all cases: cell-based
[1] = test system: Acinetobacter calcoaceticus; assay: microbe, parasite or virus in culture; conditions: Acinetobacter calcoaceticus; Acinetobacter calcoaceticus25001
Outline: (§1)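 Drug was serially double-diluted in MH broth, mixed into molten MH agar to final levels of 0.03 to 128 μg/ml, and allowed to solidify. Bacteria (10^4CFU/point) were then spotted on and the plates kept 18 hours at 35° C.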

Enterobacter aerogenes = assay: microbe, parasite or virus in culture; conditions: Klebsiella aerogenes; Enterobacter aerogenes 45102
Outline: as §1

Enterobacter cloacae = assay: microbe, parasite or virus in culture; conditions: Enterobacter cloacae 45301
Outline: as §1

Escherichia coli = assay: microbe, parasite or virus in culture; conditions: Escherichia coli
Outline: (§2)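 Two-fold agar dilution method on MH agar (0.03–128 μg/ml final), 10^4CFU/point, 18 hours at 35° C.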

Feilaoti citrobacter = assay: microbe, parasite or virus in culture; conditions: Feilaoti citrobacter 48001
Outline: as §1

Proteus vulgaris = assay: microbe, parasite or virus in culture; conditions: Proteus vulgaris 56
Outline: as §1

Pseudomonas aeruginosa = assay: microbe, parasite or virus in culture; conditions: Pseudomonas aeruginosa
Outline: as §2

Salmonella typhimurium = assay: microbe, parasite or virus in culture; conditions: Salmonella enterica; Salmonella typhimurium
Outline: as §1

Serratia marcescens = assay: microbe, parasite or virus in culture; conditions: Serratia marcescens 41002
Outline: as §1

Shigella flexneri = assay: microbe, parasite or virus in culture
Outline: as §1

Shigella sonnei = assay: microbe, parasite or virus in culture; conditions: Shigella sonnei strains 51592
Outline: as §1

Shigella = assay: microbe, parasite or virus in culture
Outline: as §1

Staphylococcus aureus = assay: microbe, parasite or virus in culture
Outline: as §2

[2] = test system: Staphylococcus epidermidis; assay: microbe, parasite or virus in culture
Outline: as §2

Typhoid bacillus H901 = assay: microbe, parasite or virus in culture
Outline: as §1

klebsiella pneumoniae = assay: microbe, parasite or virus in culture; conditions: Klebsiella pneumoniae
Outline: as §2

Enterococcus faecalis = assay: organism not typed
Method: The experimental strains are 37 standard strains preserved in lab and clinical isolated bacteria, including drug-resistant bacteria and quality-control bacteria selecting Staphylococcus aureus ATCC29213, Enterococcus faecalis ATCC29212, Escherichia coli ATCC25922, Pseudomonas aeruginosa ATCC27853 and klebsiella pneumoniae ATCC700603.
(1) Sensitivity test is conducted with two-fold agar dilution method and Denlay multipoint inoculator. Test bacteria are cultured with nutrient broth and brain heart infusion.
(2) The drug is double diluted into different concentration with MH broth after dissolved and then placed in the plate respectively.
(4) After solidification of the culture medium in the plate, test bacteria (10^4CFU/point) are inoculated by multipoint inoculator and cultured for 18 hours at constant 35° C. Then observe the results.

C[C@H]1COc2c(N3CCN(C)CC3)c(F)cc3c(=O)c(C(=O)O)cn1c23 [Levofloxacin, levofloxacin, reference compound]
MIC [1]: 0.1 µM (≈ 0.0361 µg/mL) | MIC (Enterobacter aerogenes): < 0.02 µM | MIC (Enterobacter cloacae): 0.1 µM (≈ 0.0361 µg/mL) | MIC (Escherichia coli; 08-5 (ESBLs) Extended Spectyumβ-lactamase): 76.9 µM (≈ 27.8 µg/mL) | MIC (Escherichia coli; 272(TEM-88)): < 0.7 µM | MIC (Escherichia coli; 274 (TEM-15)): 0.2 µM (≈ 0.0723 µg/mL) | MIC (Escherichia coli; 276 (TEM-52)): < 0.2 µM | MIC (Escherichia coli; ATCC25922, Escherichia coli ATCC 25922): 0.14 µM (≈ 0.0506 µg/mL) | MIC (Escherichia coli; strain 26 (listed under Escherichia coli)): < 0.7 µM | MIC (Feilaoti citrobacter): 0.1 µM (≈ 0.0361 µg/mL) | MIC (Proteus vulgaris): < 0.007 µM | MIC (Pseudomonas aeruginosa; Pseudomonas aeruginosa TCC27853): 1.2 µM (≈ 0.434 µg/mL) | MIC (Pseudomonas aeruginosa; strain 17 (listed under Pseudomonas aeruginosa)): 0.7 µM (≈ 0.253 µg/mL) | MIC (Salmonella typhimurium): < 0.02 µM | MIC (Serratia marcescens): 0.1 µM (≈ 0.0361 µg/mL) | MIC (Shigella flexneri): 0.1 µM (≈ 0.0361 µg/mL) | MIC (Shigella sonnei): 0.1 µM (≈ 0.0361 µg/mL) | MIC (Shigella): < 0.02 µM | MIC (Staphylococcus aureus; 08-49(MSSA) Meticillin susceptible staphylococcus aureus): 0.3 µM (≈ 0.108 µg/mL) | MIC (Staphylococcus aureus; 08-52(MRSA) Methicillin-resistant staphylococcus aureus): 76.9 µM (≈ 27.8 µg/mL) | MIC (Staphylococcus aureus; Staphylococcus aureus ATCC25923): 0.3 µM (≈ 0.108 µg/mL) | MIC (Staphylococcus aureus; Staphylococcus aureus ATCC29213): 0.6 µM (≈ 0.217 µg/mL) | MIC (Staphylococcus aureus; strain 15 (listed under Staphylococcus aureus)): 0.3 µM (≈ 0.108 µg/mL) | MIC ([2]; 08-17 (MSSE) Meticillin susceptible staphylococcus epidermidis): 1.2 µM (≈ 0.434 µg/mL) | MIC ([2]; 08-18 (MRSE) Methicillin-resistant staphylococcus epidermidis): 55.5 µM (≈ 20.1 µg/mL) | MIC ([2]; ATCC 12228 / MRSE, (MRSE) Methicillin-resistant Staphylococcus epidermidis ATCC12228): 0.3 µM (≈ 0.108 µg/mL) | MIC (Typhoid bacillus H901): < 0.02 µM | MIC (klebsiella pneumoniae; 08-2 (ESBLs) (listed under klebsiella pneumoniae)): 76.9 µM (≈ 27.8 µg/mL) | MIC (klebsiella pneumoniae; ATCC700603, klebsiella pneumoniae ATCC700603): 1.2 µM (≈ 0.434 µg/mL) | MIC (klebsiella pneumoniae; strain 7 (listed under klebsiella pneumoniae)): < 16 µM | MIC (Enterococcus faecalis; 06-71 (VRE) Vancomycin-resistant Enterococci, read-out: MIC): 2.4 µM (≈ 0.867 µg/mL) | MIC (Enterococcus faecalis; Enterococcus faecalis, ATCC29212, Enterococcus faecalis ATCC29212): 1.2 µM (≈ 0.434 µg/mL) | MIC (Enterococcus faecalis; Enterococcus faecalis, HH22* (AMEs) Aminoglycoside-modifying enzyme): 1.2 µM (≈ 0.434 µg/mL) | MIC (Enterococcus faecalis; Enterococcus faecalis, strain 06-7 (listed under Enterococcus faecalis)): 19.2 µM (≈ 6.95 µg/mL)
